Some results are limits rather than exact numbers.

Chain of pneumolysin (Q04IN8 whole entry): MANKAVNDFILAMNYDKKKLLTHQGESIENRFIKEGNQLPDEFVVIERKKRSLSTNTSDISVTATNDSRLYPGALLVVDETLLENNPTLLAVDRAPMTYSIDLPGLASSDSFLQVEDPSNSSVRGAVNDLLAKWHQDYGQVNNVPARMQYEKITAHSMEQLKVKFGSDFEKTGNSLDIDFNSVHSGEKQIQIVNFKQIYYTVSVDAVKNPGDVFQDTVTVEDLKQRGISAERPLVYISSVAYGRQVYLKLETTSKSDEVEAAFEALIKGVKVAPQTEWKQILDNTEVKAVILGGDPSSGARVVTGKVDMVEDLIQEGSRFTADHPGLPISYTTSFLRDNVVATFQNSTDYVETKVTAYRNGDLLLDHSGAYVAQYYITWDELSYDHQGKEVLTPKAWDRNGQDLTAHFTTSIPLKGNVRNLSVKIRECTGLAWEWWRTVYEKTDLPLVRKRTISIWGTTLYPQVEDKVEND

One experiment addresses pneumolysin (Streptococcus pneumoniae serotype 2, UniProt Q04IN8). In words: Inhibition of the haemolytic activity of pneumolysin (sheep erythrocytes). Format: cell-based. Particulars: IC50, inhibition of pneumolysin-induced haemolysis of sheep erythrocytes; class symbols of Table 1.
`CC(C)N(C(=O)c1c(O)c(O)c(C(=O)N(C(C)C)C(C)C)n1-c1ccc(F)cc1)C(C)C` [UL1-017, 1-(4-fluorophenyl)-3,4-dihydroxy-N^2,N^2,N^5,N^5-tetraisopropyl-1H-pyrrole-2,5-dicarboxamide]: the IC50 (as a rule, the concentration needed to halve the response being measured) was < 10 µM.
Still for that read-out and setting: next, `COc1ccc(-n2c(C(=O)N3CCCCC3)c(O)c(O)c2C(=O)N2CCCCC2)cc1` [UL1-018, (3,4-dihydroxy-1-(4-methoxyphenyl)-1H-pyrrole-2,5-diyl)bis(piperidin-1-ylmethanone)]: < 10 µM; `COc1ccccc1-n1c(C(=O)N(C)C)c(O)c(O)c1C(=O)N(C)C` [UL1-019, 3,4-dihydroxy-1-(2-methoxyphenyl)-N^2,N^2,N^5,N^5-tetramethyl-1H-pyrrole-2,5-dicarboxamide]: < 10 µM; `COc1ccccc1-n1c(C(=O)N2CCOCC2)c(O)c(O)c1C(=O)N1CCOCC1` [UL1-020, (3,4-dihydroxy-1-(2-methoxyphenyl)-1H-pyrrole-2,5-diyl)bis(morpholinomethanone)]: < 10 µM.
With `CCOc1ccc(-n2c(C(=O)N(C)C)c(O)c(O)c2C(=O)N(C)C)cc1` [UL1-021, 1-(4-ethoxyphenyl)-3,4-dihydroxy-N^2,N^2,N^5,N^5-tetramethyl-1H-pyrrole-2,5-dicarboxamide], the IC50 is < 10 µM.
Same read-out and setting: the figure for `CCOc1ccc(-n2c(C(=O)N3CCOCC3)c(O)c(O)c2C(=O)N2CCOCC2)cc1` [UL1-022, (1-(4-ethoxyphenyl)-3,4-dihydroxy-1H-pyrrole-2,5-diyl)bis(morpholinomethanone)] is < 10 µM; for `O=C(c1c(O)c(O)c(C(=O)N2CCOCC2)n1-c1ccc(C(F)(F)F)cc1)N1CCOCC1` [UL1-023, (3,4-dihydroxy-1-(4-(trifluoromethyl)phenyl)-1H-pyrrole-2,5-diyl)bis(morpholinomethanone)] it is < 10 µM; for `CCNC(=O)c1c(O)c(O)c(C(=O)N(C)C)n1-c1ccc(OC)cc1` [UL1-024, N^2-ethyl-3,4-dihydroxy-1-(4-methoxyphenyl)-N^5,N^5-dimethyl-1H-pyrrole-2,5-dicarboxamide] it is < 10 µM.
For `COc1ccc(-n2c(C(=O)N(C)C)c(O)c(O)c2C(=O)N2CCCCC2)cc1` [UL1-025, 3,4-dihydroxy-1-(4-methoxyphenyl)-N,N-dimethyl-5-(piperidine-1-carbonyl)-1H-pyrrole-2-carboxamide], the IC50 was < 10 µM.
On to `COc1ccc(-n2c(C(=O)N(C)C)c(O)c(O)c2C(=O)N2CCOCC2)cc1` [UL1-026, 3,4-dihydroxy-1-(4-methoxyphenyl)-N,N-dimethyl-5-(morpholine-4-carbonyl)-1H-pyrrole-2-carboxamide], for which the IC50 is < 10 µM.
The same measure, in the same setting: next, `COc1ccc(-n2c(C(=O)N(C)C)c(O)c(O)c2C(=O)N2CCN(C)CC2)cc1` [UL1-027, 3,4-dihydroxy-1-(4-methoxyphenyl)-N,N-dimethyl-5-(4-methylpiperazine-1-carbonyl)-1H-pyrrole-2-carboxamide]: < 10 µM.
Regarding `CN(C)C(=O)c1c(O)c(O)c(C(=O)N(C)C)n1-c1ccc(C(F)(F)F)cc1` [UL1-028, 3,4-dihydroxy-N^2,N^2,N^5,N^5-tetramethyl-1-(4-(trifluoromethyl)phenyl)-1H-pyrrole-2,5-dicarboxamide], the IC50 was < 10 µM.
Still for that read-out and setting: next, `CN(C)C(=O)c1ccc(-n2c(C(=O)N(C)C)c(O)c(O)c2C(=O)N(C)C)cc1` [UL1-029, 1-(4-(dimethylcarbamoyl)phenyl)-3,4-dihydroxy-N^2,N^2,N^5,N^5-tetramethyl-1H-pyrrole-2,5-dicarboxamide]: < 10 µM; `COc1ccc(-n2c(C(=O)N(C)C)c(O)c(O)c2S(=O)(=O)NC(=O)OC(C)(C)C)cc1` [UL1-030, tert-butyl (5-(dimethylcarbamoyl)-3,4-dihydroxy-1-(4-methoxyphenyl)-1H-pyrrol-2-yl)sulfonylcarbamate]: 20 to 60 µM.
On to `COc1ccc(-n2c(C#N)c(O)c(O)c2C(=O)N(C)C)cc1` [UL1-031, 5-cyano-3,4-dihydroxy-1-(4-methoxyphenyl)-N,N-dimethyl-1H-pyrrole-2-carboxamide], for which the IC50 was < 10 µM.
`CCOC(=O)c1c(O)c(O)c(C(=O)N(C)C)n1-c1ccc(F)cc1` [UL1-032, ethyl 5-(dimethylcarbamoyl)-1-(4-fluorophenyl)-3,4-dihydroxy-1H-pyrrole-2-carboxylate]: the IC50 is < 10 µM.
Regarding `COc1ccc(-n2c(C(=O)N3CCN(C(C)=O)CC3)c(O)c(O)c2C(=O)N2CCN(C(C)=O)CC2)cc1` [UL1-033, 1,1′-(4,4′-(3,4-dihydroxy-1-(4-methoxyphenyl)-1H-pyrrole-2,5-dicarbonyl)bis(piperazine-4,1-diyl))diethanone], the IC50 was < 10 µM.
Turning to `COc1ccc(-n2c(C#N)c(O)c(O)c2C#N)cc1` [UL1-034, 3,4-dihydroxy-1-(4-methoxyphenyl)-1H-pyrrole-2,5-dicarbonitrile], the IC50 was 20 to 60 µM.
Turning to `COc1ccc(-n2c(C(=O)OC(C)C)c(O)c(O)c2C(=O)N(C)C)cc1` [UL1-035, isopropyl 5-(dimethylcarbamoyl)-3,4-dihydroxy-1-(4-methoxyphenyl)-1H-pyrrole-2-carboxylate], the IC50 is < 10 µM.
On to `COc1ccc(-n2c(C(=O)OC(C)(C)C)c(O)c(O)c2C(=O)N(C)C)cc1` [UL1-036, tert-butyl 5-(dimethylcarbamoyl)-3,4-dihydroxy-1-(4-methoxyphenyl)-1H-pyrrole-2-carboxylate], for which the IC50 is < 10 µM.
On to `CCOC(=O)c1c(O)c(O)c(C(=O)N2CCN(C)CC2)n1-c1ccc(OC)cc1` [UL1-037, ethyl 3,4-dihydroxy-1-(4-methoxyphenyl)-5-(4-methylpiperazine-1-carbonyl)-1H-pyrrole-2-carboxylate], for which the half-inhibitory concentration (IC50) is < 10 µM.
On to `CCCCN(CCCC)C(=O)c1c(O)c(O)c(C(=O)OCC)n1-c1ccc(OC)cc1` [UL1-038, ethyl 5-(dibutylcarbamoyl)-3,4-dihydroxy-1-(4-methoxyphenyl)-1H-pyrrole-2-carboxylate], for which the IC50 was < 10 µM.
`CCOC(=O)c1c(O)c(O)c(C#N)n1-c1ccc(F)cc1` [UL1-039, ethyl 5-cyano-1-(4-fluorophenyl)-3,4-dihydroxy-1H-pyrrole-2-carboxylate]: the IC50 fell in the range of 20 to 60 µM.
`CCOC(=O)c1c(O)c(O)c(C(=O)N2CCOCC2)n1-c1ccc(OC)cc1` [UL1-040, ethyl 3,4-dihydroxy-1-(4-methoxyphenyl)-5-(morpholine-4-carbonyl)-1H-pyrrole-2-carboxylate]: the IC50 was < 10 µM.
Regarding `CCOC(=O)c1c(O)c(O)c(C(=O)N(CC)CC)n1-c1ccc(OC)cc1` [UL1-041, ethyl 5-(diethylcarbamoyl)-3,4-dihydroxy-1-(4-methoxyphenyl)-1H-pyrrole-2-carboxylate], the IC50 was < 10 µM.
Still for that read-out and setting: the figure for `CCOC(=O)c1c(O)c(O)c(C(=O)N(C)C)n1-c1ccc(I)cc1` [UL1-042, ethyl 5-(dimethylcarbamoyl)-3,4-dihydroxy-1-(4-iodophenyl)-1H-pyrrole-2-carboxylate] is < 10 µM; for `CCOC(=O)c1c(O)c(O)c(C(=O)N(C)C)n1-c1ccc(OC)c(I)c1` [UL1-043, ethyl 5-(dimethylcarbamoyl)-3,4-dihydroxy-1-(3-iodo-4-methoxyphenyl)-1H-pyrrole-2-carboxylate] it is < 10 µM; for `CCOc1ccc(-n2c(C(=O)N(CC)CC)c(OCc3ccccc3)c(OCc3ccccc3)c2C(=O)N(CC)CC)cc1` [UL1-045, 3,4-bis(benzyloxy)-1-(4-ethoxyphenyl)-N^2,N^2,N^5,N^5-tetraethyl-1H-pyrrole-2,5-dicarboxamide] it is < 10 µM.
For the compound `CCN(CC)C(=O)c1c(OCc2ccccc2)c(OCc2ccccc2)c(C(=O)N(CC)CC)n1-c1ccc(OC)cc1` [UL1-046, 3,4-bis(benzyloxy)-N^2,N^2,N^5,N^5-tetraethyl-1-(4-methoxyphenyl)-1H-pyrrole-2,5-dicarboxamide], the IC50 was < 10 µM.
`COc1ccc(-n2c(C(=O)N(C)C)c(OCc3ccccc3)c(OCc3ccccc3)c2C(=O)N(C)C)cc1` [UL1-047, 3,4-bis(benzyloxy)-1-(4-methoxyphenyl)-N^2,N^2,N^5,N^5-tetramethyl-1H-pyrrole-2,5-dicarboxamide]: the concentration for half-maximal inhibition (IC50) fell in the range of 10 to 20 µM.
Consider `COc1ccc(-n2c(C(=O)N3CCN(C(=O)OC(C)(C)C)CC3)c(OCc3ccccc3)c(OCc3ccccc3)c2C(=O)N2CCN(C(=O)OC(C)(C)C)CC2)cc1` [UL1-048, di-tert-butyl 4,4′-(3,4-bis(benzyloxy)-1-(4-methoxyphenyl)-1H-pyrrole-2,5-dicarbonyl)bis(piperazine-1-carboxylate)], for which the IC50 was < 10 µM.
With `COc1ccc(-n2c(C(=O)N3CCCCC3)c(OCc3ccccc3)c(OCc3ccccc3)c2C(=O)N2CCCCC2)cc1` [UL1-049, (3,4-bis(benzyloxy)-1-(4-methoxyphenyl)-1H-pyrrole-2,5-diyl)bis(piperidin-1-ylmethanone)], the IC50 was < 10 µM.
Consider `COc1ccccc1-n1c(C(=O)N(C)C)c(OCc2ccccc2)c(OCc2ccccc2)c1C(=O)N(C)C` [UL1-050, 3,4-bis(benzyloxy)-1-(2-methoxyphenyl)-N^2,N^2,N^5,N^5-tetramethyl-1H-pyrrole-2,5-dicarboxamide], for which the IC50 fell in the range of 10 to 20 µM.
Compound `COc1ccccc1-n1c(C(=O)N2CCOCC2)c(OCc2ccccc2)c(OCc2ccccc2)c1C(=O)N1CCOCC1` [UL1-051, (3,4-bis(benzyloxy)-1-(2-methoxyphenyl)-1H-pyrrole-2,5-diyl)bis(morpholinomethanone)] registered an IC50 of 20 to 60 µM.
In the case of `CCOc1ccc(-n2c(C(=O)N(C)C)c(OCc3ccccc3)c(OCc3ccccc3)c2C(=O)N(C)C)cc1` [UL1-052, 3,4-bis(benzyloxy)-1-(4-ethoxyphenyl)-N^2,N^2,N^5,N^5-tetramethyl-1H-pyrrole-2,5-dicarboxamide], the IC50 is < 10 µM.
Turning to `CCOc1ccc(-n2c(C(=O)N3CCOCC3)c(OCc3ccccc3)c(OCc3ccccc3)c2C(=O)N2CCOCC2)cc1` [UL1-053, (3,4-bis(benzyloxy)-1-(4-ethoxyphenyl)-1H-pyrrole-2,5-diyl)bis(morpholinomethanone)], the IC50 was in the range of 10 to 20 µM.

The experiment is the same for the next values; noted with them: IC50, inhibition of pneumolysin-induced haemolysis of sheep erythrocytes; specific values.
For the compound `CCNC(=O)c1c(O)c(O)c(C(=O)N(C)C)n1-c1ccc(OC)cc1` [UL1-024, N^2-ethyl-3,4-dihydroxy-1-(4-methoxyphenyl)-N^5,N^5-dimethyl-1H-pyrrole-2,5-dicarboxamide], the IC50 turned out to be 0.182 µM.
Take `CN(C)C(=O)c1c(O)c(O)c(C(=O)N(C)C)n1-c1ccc(C(F)(F)F)cc1` [UL1-028, 3,4-dihydroxy-N^2,N^2,N^5,N^5-tetramethyl-1-(4-(trifluoromethyl)phenyl)-1H-pyrrole-2,5-dicarboxamide]: it took 0.068 µM to reach half-maximal inhibition (IC50).
Compound `COc1ccc(-n2c(C(=O)OC(C)C)c(O)c(O)c2C(=O)N(C)C)cc1` [UL1-035, isopropyl 5-(dimethylcarbamoyl)-3,4-dihydroxy-1-(4-methoxyphenyl)-1H-pyrrole-2-carboxylate] came in with an IC50 of 0.15 µM.
Turning to `COc1ccc(-n2c(C(=O)N3CCCCC3)c(OCc3ccccc3)c(OCc3ccccc3)c2C(=O)N2CCCCC2)cc1` [UL1-049, (3,4-bis(benzyloxy)-1-(4-methoxyphenyl)-1H-pyrrole-2,5-diyl)bis(piperidin-1-ylmethanone)], the IC50 amounted to 0.479 µM.

The record behind these values is patent US9221756B2, “Pyrrole derivatives” (priority 2011, dated 2015).
